In ChEMBL document CHEMBL3870312, “Rational modification of donepezil as multifunctional acetylcholinesterase inhibitors for the treatment of Alzheimer's disease” (Eur J Med Chem, 2016):
Calls of active or inactive are those of the source. No cut-off for these calls is given here.

Columns and labels:
Cholinesterase [1] = biological target: Cholinesterase (Homo sapiens, UniProt P06276)
Description: Inhibition of human serum BuChE using s-butyrylthiocholine iodide as substrate preincubated for 5 mins followed by substrate addition measured up to 3 mins by Ellman's method

Acetylcholinesterase [2] = biological target: Acetylcholinesterase (Electrophorus electricus, UniProt O42275)
Description: Inhibition of electric eel AChE using acetylthiocholine iodide as substrate preincubated for 5 mins followed by substrate addition measured up to 3 mins by Ellman's method

Acetylcholinesterase [3] = biological target: T1, Acetylcholinesterase (Homo sapiens, UniProt P22303)
Description: Inhibition of human erythrocytes AChE using acetylthiocholine iodide as substrate preincubated for 5 mins followed by substrate addition measured up to 3 mins by Ellman's method

Cholinesterase [4] = biological target: Cholinesterase (Equus caballus, UniProt P81908)
Description: Inhibition of equine serum BuChE using s-butyrylthiocholine iodide as substrate preincubated for 5 mins followed by substrate addition measured up to 3 mins by Ellman's method

[5] = biological target: Amyloid-beta precursor protein (Homo sapiens) (UniProt P05067); settings: at 20 µM
Description: Inhibition of self-mediated aggregation of amyloid beta (1 to 42 residues) (unknown origin) at 20 uM incubated for 46 to 48 hrs by Thioflavin T binding assay relative to control

Rattus norvegicus = organism: Rattus norvegicus; experiment: Cytotoxicity against rat PC12 cells assessed as reduction in cell viability at 3.125 to 50 uM after 24 hrs by MTT assay; assay type: toxicity; settings: pc-12, 24 h
in vitro = settings: PAMPA
Description: Effective permeability of the compound after 18 hrs by PAMPA

Mus musculus [6] = experiment: Hepatotoxicity in scopolamine-induced memory deficit Kunming mouse model assessed as increased aspartate aminotransferase at 10 mg/Kg, po for 6 days; assay type: toxicity, organism-based; settings: in vivo, 144 h
[7] = Inhibition of copper-mediated aggregation of amyloid beta (1 to 42 residues) (unknown origin) at 20 uM incubated for 46 to 48 hrs by thioflavin-T binding assay relative to control; assay type: physicochemical
Mus musculus [8] = experiment: Toxicity in scopolamine-induced memory deficit Kunming mouse model assessed as change in body weight at 2.5 to 10 mg/Kg, po for 7 days; assay type: organism-based; settings: in vivo, 168 h
Mus musculus [9] = experiment: Hepatotoxicity in scopolamine-induced memory deficit Kunming mouse model assessed as area of necrosis in hepatocytes at 10 mg/Kg, po for 6 days by hematoxylin and eosin-staining based microscopic analysis; assay type: toxicity, organism-based, Hepatocyte; settings: 144 h
Mus musculus [10] = experiment: Hepatotoxicity in scopolamine-induced memory deficit Kunming mouse model assessed as distinct fatty degeneration in hepatocytes at 10 mg/Kg, po for 6 days by hematoxylin and eosin-staining based microscopic analysis; assay type: toxicity, organism-based; settings: in vivo, 144 h
Mus musculus [11] = experiment: Hepatotoxicity in scopolamine-induced memory deficit Kunming mouse model assessed as increase in number of inflammatory cells in portal fields of liver at 10 mg/Kg, po for 6 days by hematoxylin and eosin-staining based microscopic analysis; assay type: toxicity, organism-based; settings: in vivo, 144 h
Mus musculus [12] = experiment: Hepatotoxicity in scopolamine-induced memory deficit Kunming mouse model assessed as increase in alanine aminotransferase levels at 10 mg/kg, po for 6 days; assay type: toxicity, organism-based; settings: in vivo, 144 h
Mus musculus [13] = experiment: Toxicity in scopolamine-induced memory deficit Kunming mouse model assessed as effect on survival at 2.5 to 10 mg/Kg, po for 7 days; assay type: organism-based; settings: in vivo, 168 h
Mus musculus [14] = experiment: Cognitive enhancement activity in po dosed scopolamine-induced memory deficit Kunming mouse model assessed as increase in step-through latency time treated for 1 hr before training followed by scopolamine challenge 30 mins before training measured 24 hrs after training trial by passive avoidance test; assay type: functional, organism-based
Acetylcholinesterase [15] = biological target: T1, Acetylcholinesterase; experiment: Mixed-type inhibition of human erythrocyte AChE preincubated for 15 mins followed by addition of acetylthiocholine iodide as substrate in varying concentrations by Lineweaver-Burk reciprocal plot analysis
PC-12 [16] = experiment: Neuroprotective activity against amyloid beta (1 to 42 residues) induced cell death in rat PC12 cells assessed as increase in cell viability at 20 uM preincubated for 24 hrs followed by amyloid beta (1 to 42 residues) addition measured after 24 hrs by MTT assay; assay type: functional, cell-based
PC-12 [17] = experiment: Neuroprotective activity against Cu2+-amyloid beta (1 to 42 residues) induced cell death in rat PC12 cells by phase-contrast microscopy analysis; assay type: functional, cell-based
PC-12 [18] = experiment: Neuroprotective activity against amyloid beta (1 to 42 residues) induced cell death in rat PC12 cells by phase-contrast microscopy analysis; assay type: functional, cell-based
PC-12 [19] = experiment: Neuroprotective activity against Cu2+-amyloid beta (1 to 42 residues) induced cell death in rat PC12 cells assessed as increase in cell viability at 2.5 to 20 uM preincubated for 24 hrs followed by Cu2+-amyloid beta (1 to 42 residues) addition measured after 24 hrs by MTT assay; assay type: functional, cell-based
PC-12 [20] = experiment: Neuroprotective activity against amyloid beta (1 to 42 residues) induced cell death in rat PC12 cells assessed as increase in cell viability at 10 to 20 uM preincubated for 24 hrs followed by amyloid beta (1 to 42 residues) addition measured after 24 hrs by MTT assay; assay type: functional, cell-based

T1 sequence (P22303 whole entry): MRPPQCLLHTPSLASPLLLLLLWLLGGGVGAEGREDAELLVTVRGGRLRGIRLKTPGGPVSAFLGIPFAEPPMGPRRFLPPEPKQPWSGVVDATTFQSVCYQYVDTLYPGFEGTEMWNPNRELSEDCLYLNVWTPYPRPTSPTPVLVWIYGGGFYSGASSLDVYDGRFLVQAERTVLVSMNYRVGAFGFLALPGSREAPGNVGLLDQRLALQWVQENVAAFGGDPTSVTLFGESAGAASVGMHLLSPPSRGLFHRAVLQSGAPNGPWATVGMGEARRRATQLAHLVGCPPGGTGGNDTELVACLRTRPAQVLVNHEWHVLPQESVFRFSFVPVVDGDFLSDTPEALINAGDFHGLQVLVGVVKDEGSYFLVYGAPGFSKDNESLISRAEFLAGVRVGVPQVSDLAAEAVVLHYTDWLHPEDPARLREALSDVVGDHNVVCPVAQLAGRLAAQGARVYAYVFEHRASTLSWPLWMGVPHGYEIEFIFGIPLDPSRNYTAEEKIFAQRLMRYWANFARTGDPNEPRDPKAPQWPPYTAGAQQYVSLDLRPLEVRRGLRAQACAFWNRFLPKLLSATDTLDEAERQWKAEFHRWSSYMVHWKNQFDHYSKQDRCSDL
Sequence of Cholinesterase (Equus caballus, UniProt P81908) (P81908 whole entry): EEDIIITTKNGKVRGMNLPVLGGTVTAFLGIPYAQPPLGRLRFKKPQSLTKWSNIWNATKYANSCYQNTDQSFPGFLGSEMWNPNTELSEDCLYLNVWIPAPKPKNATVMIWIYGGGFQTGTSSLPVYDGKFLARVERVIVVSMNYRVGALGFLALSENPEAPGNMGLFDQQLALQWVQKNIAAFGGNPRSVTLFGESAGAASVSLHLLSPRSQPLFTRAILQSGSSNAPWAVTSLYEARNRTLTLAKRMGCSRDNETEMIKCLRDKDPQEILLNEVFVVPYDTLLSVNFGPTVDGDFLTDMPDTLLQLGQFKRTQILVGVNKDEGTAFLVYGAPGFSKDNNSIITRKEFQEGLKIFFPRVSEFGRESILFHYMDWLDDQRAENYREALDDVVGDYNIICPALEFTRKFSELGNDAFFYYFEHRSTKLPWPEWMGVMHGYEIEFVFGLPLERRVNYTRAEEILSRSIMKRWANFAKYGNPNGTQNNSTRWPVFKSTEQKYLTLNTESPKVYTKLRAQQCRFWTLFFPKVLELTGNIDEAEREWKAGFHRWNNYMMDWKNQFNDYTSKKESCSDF
Sequence of Amyloid-beta precursor protein (Homo sapiens) (P05067 whole entry): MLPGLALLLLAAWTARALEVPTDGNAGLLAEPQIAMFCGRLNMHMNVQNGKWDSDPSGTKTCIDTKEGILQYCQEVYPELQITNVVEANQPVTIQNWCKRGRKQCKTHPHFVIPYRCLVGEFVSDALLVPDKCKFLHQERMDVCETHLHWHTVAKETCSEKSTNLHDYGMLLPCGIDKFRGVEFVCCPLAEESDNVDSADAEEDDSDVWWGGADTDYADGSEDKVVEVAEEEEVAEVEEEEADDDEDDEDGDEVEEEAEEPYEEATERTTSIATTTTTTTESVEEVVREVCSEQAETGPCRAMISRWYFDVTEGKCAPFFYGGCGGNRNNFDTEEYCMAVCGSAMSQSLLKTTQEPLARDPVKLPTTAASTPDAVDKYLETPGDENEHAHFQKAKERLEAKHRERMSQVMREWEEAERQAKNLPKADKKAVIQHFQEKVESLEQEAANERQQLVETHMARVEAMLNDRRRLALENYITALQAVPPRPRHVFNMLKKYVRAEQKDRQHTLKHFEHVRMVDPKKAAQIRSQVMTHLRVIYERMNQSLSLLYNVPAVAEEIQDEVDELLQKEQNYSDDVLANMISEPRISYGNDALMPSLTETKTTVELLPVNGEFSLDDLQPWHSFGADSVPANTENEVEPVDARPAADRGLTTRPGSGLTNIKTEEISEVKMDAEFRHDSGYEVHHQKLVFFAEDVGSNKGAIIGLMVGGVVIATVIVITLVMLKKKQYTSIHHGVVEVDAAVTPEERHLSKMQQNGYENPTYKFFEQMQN
Sequence of Cholinesterase (Homo sapiens, UniProt P06276) (P06276 whole entry): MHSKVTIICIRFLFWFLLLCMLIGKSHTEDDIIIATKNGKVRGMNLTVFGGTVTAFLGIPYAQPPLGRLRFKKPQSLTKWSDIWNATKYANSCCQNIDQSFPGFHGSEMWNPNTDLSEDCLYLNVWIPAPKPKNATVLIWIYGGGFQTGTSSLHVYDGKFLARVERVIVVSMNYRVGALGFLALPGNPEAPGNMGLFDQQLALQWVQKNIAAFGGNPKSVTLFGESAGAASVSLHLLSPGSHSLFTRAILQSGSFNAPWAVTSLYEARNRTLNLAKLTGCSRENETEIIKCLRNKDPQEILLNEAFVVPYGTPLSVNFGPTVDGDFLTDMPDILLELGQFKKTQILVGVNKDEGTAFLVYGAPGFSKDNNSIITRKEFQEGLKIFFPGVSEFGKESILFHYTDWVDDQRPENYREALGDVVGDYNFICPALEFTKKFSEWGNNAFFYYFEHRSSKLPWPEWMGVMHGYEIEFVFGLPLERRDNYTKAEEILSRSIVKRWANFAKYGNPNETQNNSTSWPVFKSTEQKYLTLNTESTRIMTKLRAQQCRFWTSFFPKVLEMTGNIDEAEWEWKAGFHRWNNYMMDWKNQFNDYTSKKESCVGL
Sequence of Acetylcholinesterase (Electrophorus electricus, UniProt O42275) (O42275 whole entry): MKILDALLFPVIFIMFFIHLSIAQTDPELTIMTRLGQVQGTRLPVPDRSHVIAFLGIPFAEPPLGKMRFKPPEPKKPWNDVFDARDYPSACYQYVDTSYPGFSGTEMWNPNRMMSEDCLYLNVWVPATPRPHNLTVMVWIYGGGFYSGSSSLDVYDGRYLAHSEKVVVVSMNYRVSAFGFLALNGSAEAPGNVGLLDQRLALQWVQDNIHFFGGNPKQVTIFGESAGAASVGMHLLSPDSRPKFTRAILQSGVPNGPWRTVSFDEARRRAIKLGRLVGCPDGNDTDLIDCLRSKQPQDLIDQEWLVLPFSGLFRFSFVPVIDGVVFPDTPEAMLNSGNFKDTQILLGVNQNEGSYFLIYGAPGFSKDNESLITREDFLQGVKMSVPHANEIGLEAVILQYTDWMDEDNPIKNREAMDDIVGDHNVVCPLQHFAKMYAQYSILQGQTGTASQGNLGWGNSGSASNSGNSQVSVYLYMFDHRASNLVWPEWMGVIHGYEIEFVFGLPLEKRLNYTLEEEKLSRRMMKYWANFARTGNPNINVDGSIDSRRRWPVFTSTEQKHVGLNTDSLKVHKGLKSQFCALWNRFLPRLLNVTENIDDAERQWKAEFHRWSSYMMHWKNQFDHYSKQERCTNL

Row | Compound | IC50 (Cholinesterase [1]) [µM] | IC50 (Acetylcholinesterase [2]) [µM] | IC50 (Acetylcholinesterase [3]) [µM] | IC50 (Cholinesterase [4]) [µM] | other results
1 | COc1cc2c(cc1OC)C(=O)C(CC1CCN(Cc3ccccc3Cl)CC1)C2 (stereo not drawn) | 18.8 | 0.06 | 0.097 | 3.2 | –
2 | COc1cc2c(cc1OC)C(=O)C(CC1CCN(Cc3cccc(F)n3)CC1)C2 (stereo not drawn) | 38.9 | 0.246 | 0.195 | 21.1 | –
3 | COc1cc2c(cc1OC)C(=O)C(CC1CCN(Cc3ccccc3)CC1)C2 (stereo not drawn) | – | – | – | – | inhibition [5]: > 10%
4 | COc1cc2c(cc1OC)C(=O)C(CC1CCN(Cc3ccc(C(F)(F)F)cc3)CC1)C2 (stereo not drawn) | – | 2.03 | 5.43 | 3.98 | –
5 | COc1cc2c(cc1OC)C(=O)C(CC1CCN(Cc3ncccc3C)CC1)C2 (stereo not drawn) | 49.2 | 0.108 | 0.113 | 15.6 | Activity (Rattus norvegicus): Non-Toxic; Papp at 18 h (in vitro): 8.4 ×10⁻⁶ cm/s; inhibition [5]: 29.3%
6 | COc1cc2c(cc1OC)C(=O)C(CC1CCN(Cc3cccc(Cl)n3)CC1)C2 (stereo not drawn) | 78.7 | 0.409 | 0.883 | 31.6 | –
7 | COc1cc2c(cc1OC)C(=O)C(CC1CCN(Cc3ccc(Cl)cc3)CC1)C2 (stereo not drawn) | 81.6 | 4.8 | 2.86 | 89.4 | –
8 | COc1cc2c(cc1OC)C(=O)C(CC1CCN(Cc3ccccc3F)CC1)C2 (stereo not drawn) | 12.8 | 0.043 | 0.032 | 3.71 | Activity (Mus musculus [6]): Non-Toxic; inhibition (INH) [7]: < 10%; Activity (Rattus norvegicus): Non-Toxic; Activity (Mus musculus [8]): Non-Toxic; Activity (Mus musculus [9]): Non-Toxic; Papp at 18 h (in vitro): 13.7 ×10⁻⁶ cm/s; Activity (Mus musculus [10]): Non-Toxic; Activity (Mus musculus [11]): Non-Toxic; Activity (Mus musculus [12]): Non-Toxic; Activity (Mus musculus [13]): Non-Toxic; Activity (Mus musculus [14]): Dose-dependent effect; inhibition [5]: > 10%; inhibition (Acetylcholinesterase [15]): Active
9 | COC(=O)c1cccc(CN2CCC(CC3Cc4cc(OC)c(OC)cc4C3=O)CC2)n1 (stereo not drawn) | 25.4 | 0.511 | 5.78 | 29.5 | –
10 | COc1cc2c(cc1OC)C(=O)C(CC1CCN(Cc3ccc4cccc(O)c4n3)CC1)C2 (stereo not drawn) | 37.4 | 6.42 | 29.8 | 4.53 | Papp at 18 h (in vitro): 6.1 ×10⁻⁶ cm/s; inhibition [5]: 44.8%
11 | COc1cc2c(cc1OC)C(=O)C(CC1CCN(Cc3cccc([N+](=O)[O-])c3)CC1)C2 (stereo not drawn) | – | 0.414 | 0.652 | 42.4 | –
12 | COc1cc2c(cc1OC)C(=O)C(CC1CCN(Cc3ccccn3)CC1)C2 (stereo not drawn) | 38.6 | 1.09 | 0.147 | 7.83 | –
13 | COc1cc2c(cc1OC)C(=O)C(CC1CCN(Cc3cccc(C)c3)CC1)C2 (stereo not drawn) | 28.1 | 0.108 | 0.088 | 5.83 | inhibition (INH) [7]: < 10%; Papp at 18 h (in vitro): 12.6 ×10⁻⁶ cm/s; inhibition [5]: > 10%
14 | COc1cc2c(cc1OC)C(=O)C(CC1CCN(Cc3ccccc3C)CC1)C2 (stereo not drawn) | – | 0.184 | 0.243 | 38.1 | –
15 | COc1cc2c(cc1OC)C(=O)C(CC1CCN(Cc3ccccc3[N+](=O)[O-])CC1)C2 (stereo not drawn) | 91.2 | 0.106 | 3.11 | 31.1 | –
16 | COc1cc2c(cc1OC)C(=O)C(CC1CCN(Cc3ccc4ccccc4n3)CC1)C2 (stereo not drawn) | 6.35 | 8.71 | 8.43 | 9.68 | –
17 | COc1cc2c(cc1OC)C(=O)C(CC1CCN(Cc3cccc(C(F)(F)F)c3)CC1)C2 (stereo not drawn) | 76.9 | 0.197 | 2.12 | 18.2 | –
18 | COc1cc2c(cc1OC)C(=O)C(CC1CCN(Cc3cccc(F)c3)CC1)C2 (stereo not drawn) | 26.7 | 0.068 | 0.054 | 2.66 | Papp at 18 h (in vitro): 11.5 ×10⁻⁶ cm/s; inhibition [5]: > 10%
19 | COc1cc2c(cc1OC)C(=O)C(CC1CCN(Cc3cccc(Cl)c3)CC1)C2 (stereo not drawn) | 50.2 | 0.237 | 0.114 | 68.9 | –
20 | COc1cc2c(cc1OC)C(=O)C(CC1CCN(Cc3ncc(C)cc3C)CC1)C2 (stereo not drawn) | 8.55 | 1.01 | 0.814 | 6.31 | –
21 | COc1cc2c(cc1OC)C(=O)C(CC1CCN(Cc3ccc(F)cc3)CC1)C2 (stereo not drawn) | 8.13 | 0.13 | 0.041 | 2.31 | –
22 | COc1cc2c(cc1OC)C(=O)C(CC1CCN(Cc3ccc(C)cc3)CC1)C2 (stereo not drawn) | 43.8 | 0.221 | 0.127 | 6.67 | Activity (Rattus norvegicus): Non-Toxic
23 | COc1cc2c(cc1OC)C(=O)C(CC1CCN(Cc3cccc(Br)n3)CC1)C2 (stereo not drawn) | – | 0.253 | 1.98 | 17.5 | –
24 | COc1ccc2[nH]cc(CCNC(C)=O)c2c1 | – | – | – | – | Activity (PC-12 [16]): Active
25 | COc1cc2c(cc1OC)C(=O)C(CC1CCN(Cc3ccc([N+](=O)[O-])cc3)CC1)C2 (stereo not drawn) | 85.8 | 4.02 | 1.91 | 12.2 | –
26 | COc1cc2c(cc1OC)C(=O)C(CC1CCN(Cc3ccc(O)c4ncccc34)CC1)C2 (stereo not drawn) | – | 27.3 | 20.9 | 7.65 | Activity (PC-12 [17]): Active; Activity (PC-12 [18]): Active; Activity (Rattus norvegicus): Non-Toxic; Papp at 18 h (in vitro): 8.8 ×10⁻⁶ cm/s; Activity (PC-12 [19]): Active; inhibition [5]: 51.1%; Activity (PC-12 [20]): Active
27 | COc1cc2c(cc1OC)C(=O)C(CC1CCN(Cc3ccccc3C(F)(F)F)CC1)C2 (stereo not drawn) | 41.4 | 0.7 | 4.87 | 31.7 | –
